Reference: ChEMBL document CHEMBL1201862, “PubChem BioAssay data set” (2004)
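1) Cells in 96-well plates. 2) Compound, 48 h, 5 concentrations. 3) Linear interpolation between surrounding doses. 4) Unreached endpoint = highest concentration. Here, GI50 denotes the concentration required for 50% inhibition of growth.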 Calls of active or inactive are those of the source. Cut-off read from the data, not from the text of the source: active = GI50 up to about 1.1 µM and inactive = higher.

Tests used:
Assay in all cases: DTP human tumour cell line panel, 48 h
PC-3 = tested on: PC-3
SN12C = tested on: SN12C
OVCAR-4 = tested on: OVCAR-4
A549 = tested on: A549
SK-MEL-5 = tested on: SK-MEL-5
SK-MEL-2 = tested on: SK-MEL-2
786-0 = tested on: 786-0
HCC 2998 = tested on: HCC 2998
SK-OV-3 = tested on: SK-OV-3
MCF7 = tested on: MCF7
BT-549 = tested on: BT-549
HT-29 = tested on: HT-29
KM12 = tested on: KM12
A498 = tested on: A498
SW-620 = tested on: SW-620
U-251 = tested on: U-251
NCI-H226 = tested on: NCI-H226
SNB-19 = tested on: SNB-19
HOP-62 = tested on: HOP-62
LOX IMVI = tested on: LOX IMVI

Measured: GI50

O=C1c2ccccc2C(=O)c2c(NC(=O)c3ccc4c5c(ncnc35)-c3ccccc3C4=O)cccc21
inactive: PC-3 > 100 µM | SN12C > 100 µM | OVCAR-4 > 100 µM | A549 > 100 µM | SK-MEL-5 > 100 µM | SK-MEL-2 89.3 µM | 786-0 25.1 µM | HCC 2998 > 100 µM | SK-OV-3 23.2 µM | MCF7 > 100 µM | BT-549 48 µM | HT-29 > 100 µM | KM12 > 100 µM | A498 40.6 µM | SW-620 > 100 µM | U-251 31 µM | NCI-H226 > 100 µM | SNB-19 33.9 µM | HOP-62 14.7 µM

C=CCCC1(CC(Sc2ccccc2)P(=O)(c2ccccc2)c2ccccc2)OCCO1 (stereo not given)
inactive: PC-3 > 10 µM | SN12C > 10 µM | OVCAR-4 > 10 µM | A549 > 10 µM | SK-MEL-5 > 10 µM | SK-MEL-2 > 10 µM | 786-0 > 10 µM | HCC 2998 > 10 µM | SK-OV-3 > 10 µM | LOX IMVI > 10 µM | MCF7 > 10 µM | BT-549 > 10 µM | HT-29 > 10 µM | KM12 > 10 µM | A498 > 10 µM | SW-620 > 10 µM | U-251 > 10 µM | NCI-H226 > 10 µM | SNB-19 > 10 µM | HOP-62 > 10 µM

O=C(NNC(=S)NCc1ccccc1)c1csc(NC(=S)NC2CCCCC2)n1
inactive: PC-3 37.3 µM | SN12C 34.4 µM | A549 37.2 µM | SK-MEL-5 13.8 µM | SK-MEL-2 27 µM | 786-0 45.8 µM | HCC 2998 37.3 µM | SK-OV-3 50.6 µM | LOX IMVI 27.4 µM | MCF7 29.6 µM | BT-549 36.9 µM | HT-29 3.42 µM | KM12 49.9 µM | A498 42 µM | SW-620 32.5 µM | U-251 33.3 µM | NCI-H226 5.93 µM | SNB-19 76.6 µM | HOP-62 64.1 µM

CC(C)Oc1ccc2c(c1)OCC1Cc3ccccc3OC21 (stereo not given)
inactive: PC-3 > 100 µM | SN12C > 100 µM | A549 > 100 µM | SK-MEL-5 23 µM | SK-MEL-2 > 100 µM | 786-0 > 100 µM | HCC 2998 96.8 µM | SK-OV-3 > 100 µM | LOX IMVI > 100 µM | MCF7 46.8 µM | BT-549 58.2 µM | HT-29 41.4 µM | KM12 > 100 µM | A498 > 100 µM | SW-620 > 100 µM | U-251 > 100 µM | NCI-H226 > 100 µM | HOP-62 > 100 µM

COc1cc2c3cc1Oc1c(OC)c(OC)cc4c1C(Cc1ccc(O)c(c1)-c1cc(ccc1OC)CC3N(C)CC2)N(C)CC4 (stereo not given)
inactive: PC-3 20.4 µM | SN12C 15.6 µM | OVCAR-4 29.4 µM | A549 24.5 µM | SK-MEL-5 14.8 µM | SK-MEL-2 19.5 µM | 786-0 29 µM | HCC 2998 17.2 µM | SK-OV-3 72.8 µM | LOX IMVI 4.8 µM | MCF7 16.5 µM | BT-549 19.7 µM | HT-29 6.92 µM | KM12 17.5 µM | A498 23.2 µM | SW-620 22.3 µM | U-251 28.1 µM | NCI-H226 40.6 µM | SNB-19 22.3 µM

CCOC(=O)CCC(NC(=O)OCc1ccccc1)C(=O)NC(CCC(=O)OCC)C(=O)NC(CCC(=O)OCC)C(=O)NNC(=O)OC(C)(C)C (stereo not given)
inactive: PC-3 > 100 µM | SN12C > 100 µM | A549 > 100 µM | SK-MEL-5 > 100 µM | SK-MEL-2 > 100 µM | 786-0 > 100 µM | HCC 2998 > 100 µM | MCF7 > 100 µM | BT-549 > 100 µM | HT-29 > 100 µM | KM12 > 10 µM | A498 > 100 µM | SW-620 > 100 µM | U-251 > 100 µM | NCI-H226 > 100 µM | SNB-19 > 100 µM | HOP-62 > 100 µM

CCn1c(=O)c2c3cc(O)ccc3oc2c2ccc(O)cc21
inactive: PC-3 31.1 µM | SN12C 29.2 µM | OVCAR-4 34.8 µM | A549 24.4 µM | SK-MEL-5 17 µM | 786-0 57.7 µM | HCC 2998 19.3 µM | SK-OV-3 43.6 µM | MCF7 28.6 µM | BT-549 17.4 µM | HT-29 25.2 µM | KM12 31.8 µM | A498 18.9 µM | SW-620 31.3 µM | U-251 22.9 µM | NCI-H226 37.1 µM | SNB-19 21.9 µM | HOP-62 28.8 µM

CCc1c(-c2ccc(OC)cc2)c(=O)oc2cc(O)ccc12
inactive: PC-3 24.7 µM | SN12C 35.9 µM | OVCAR-4 33.8 µM | A549 27.3 µM | SK-MEL-5 14.8 µM | SK-MEL-2 > 100 µM | 786-0 51.2 µM | HCC 2998 72.3 µM | LOX IMVI 30.1 µM | MCF7 32.7 µM | BT-549 25.1 µM | HT-29 40.7 µM | KM12 37.2 µM | A498 22.6 µM | SW-620 51.3 µM | U-251 38.4 µM | NCI-H226 56.6 µM | SNB-19 56.1 µM | HOP-62 54 µM

Cn1c(=O)c2c(nc3sc4ccccc4c(=O)n32)n(C)c1=O
inactive: PC-3 > 100 µM | SN12C > 100 µM | OVCAR-4 > 100 µM | SK-MEL-5 > 100 µM | SK-MEL-2 > 100 µM | 786-0 > 100 µM | HCC 2998 > 100 µM | SK-OV-3 > 100 µM | LOX IMVI > 100 µM | MCF7 > 100 µM | BT-549 > 100 µM | HT-29 > 100 µM | KM12 > 100 µM | A498 > 100 µM | SW-620 > 100 µM | U-251 > 100 µM | NCI-H226 > 100 µM | SNB-19 > 100 µM | HOP-62 > 100 µM

O=C1Cc2c(-c3ccccc3)cc(-c3ccc4ccccc4c3)nc2-c2ccccc2N1
inactive: PC-3 15.7 µM | SN12C 6.22 µM | OVCAR-4 2.9 µM | A549 14.9 µM | SK-MEL-5 4.74 µM | SK-MEL-2 43.9 µM | 786-0 3.18 µM | HCC 2998 22.6 µM | SK-OV-3 6.64 µM | LOX IMVI 16.7 µM | MCF7 13.9 µM | BT-549 27.4 µM | HT-29 3.31 µM | KM12 4.89 µM | A498 12.7 µM | SW-620 29.2 µM | U-251 16.4 µM | NCI-H226 8.45 µM | SNB-19 3.06 µM | HOP-62 7.52 µM

CSc1cnn(CCC#N)c(=O)n1
inactive: PC-3 > 100 µM | SN12C > 100 µM | A549 > 100 µM | SK-MEL-5 26.4 µM | 786-0 > 100 µM | HCC 2998 > 100 µM | SK-OV-3 > 100 µM | LOX IMVI 93.5 µM | MCF7 39.4 µM | BT-549 > 100 µM | HT-29 > 100 µM | KM12 > 100 µM | A498 74 µM | SW-620 74.6 µM | U-251 > 100 µM | NCI-H226 > 100 µM | SNB-19 > 100 µM | HOP-62 > 100 µM

CC(=O)/C(=C\Nc1c(C)n(C)n(C)c1=O)C(=O)c1ccccc1
inactive: PC-3 > 50 µM | SN12C > 50 µM | OVCAR-4 > 50 µM | A549 > 50 µM | SK-MEL-5 > 50 µM | SK-MEL-2 > 50 µM | 786-0 > 50 µM | HCC 2998 > 50 µM | SK-OV-3 > 50 µM | LOX IMVI > 50 µM | MCF7 > 50 µM | BT-549 > 50 µM | HT-29 > 50 µM | A498 > 50 µM | SW-620 > 50 µM | U-251 > 50 µM | NCI-H226 > 50 µM | SNB-19 > 50 µM | HOP-62 > 50 µM

CCOC(=O)c1c(C)cc(=O)n2c1[nH]c1ccccc12
inactive: PC-3 > 100 µM | SN12C 37.4 µM | A549 82.2 µM | SK-MEL-5 > 100 µM | SK-MEL-2 > 100 µM | 786-0 63.5 µM | HCC 2998 78.7 µM | SK-OV-3 > 100 µM | LOX IMVI > 100 µM | MCF7 > 100 µM | BT-549 > 100 µM | HT-29 > 100 µM | A498 40.3 µM | SW-620 > 100 µM | U-251 34.6 µM | NCI-H226 > 100 µM | SNB-19 88.3 µM

O=C(O)c1cc2c(cc1S(=O)(=O)O)C1C(C3C2C2(Cl)C(Cl)=C(Cl)C3(Cl)C2(Cl)Cl)C2(Cl)C(Cl)=C(Cl)C1(Cl)C2(Cl)Cl (stereo not given)
inactive: PC-3 41 µM | SN12C 8.71 µM | OVCAR-4 38.7 µM | A549 72.9 µM | SK-MEL-5 34.7 µM | SK-MEL-2 27 µM | 786-0 39.8 µM | HCC 2998 20.8 µM | SK-OV-3 39.9 µM | MCF7 34.8 µM | BT-549 67 µM | HT-29 21.8 µM | KM12 51.4 µM | A498 97.1 µM | SW-620 37.2 µM | U-251 38.3 µM | NCI-H226 23.4 µM | SNB-19 47.4 µM | HOP-62 26.2 µM

CN(C)C(=S)S [SODIUM DIMETHYLCARBAMODITHIOATE]
inactive: PC-3 3.37 µM | SN12C 80 µM | OVCAR-4 36.9 µM | A549 > 100 µM | SK-MEL-5 4.14 µM | SK-MEL-2 18.1 µM | 786-0 > 70 µM | HCC 2998 20.1 µM | SK-OV-3 > 100 µM | LOX IMVI 34.4 µM | MCF7 > 100 µM | BT-549 > 100 µM | HT-29 11.5 µM | KM12 > 25.2 µM | A498 > 100 µM | SW-620 > 59.7 µM | U-251 98.6 µM | NCI-H226 > 100 µM | SNB-19 > 100 µM
